Key:
HiBiT-BRM = target: T1, HiBiT-BRM (Homo sapiens, UniProt P51531); assay: HiBiT-BRM cell-based degradation assay (Nano-Glo HiBiT Lytic Detection); conditions: HeLa cells expressing HiBiT-BRM, 24 h; for DC50: read-out: BRM HiBit Degradation IC50
T1 construct: expressed in transfected cells
Outline: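 HeLa cells stably expressing HiBiT-tagged BRM were treated for 24 h, then lysed with LgBiT-containing Nano-Glo reagent and luminescence read. % degradation scaled between DMSO (high control) and 2 μM reference BRM/BRG1 degrader (low control).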

HiBit-BRG1 = target: T2, HiBit-BRG1 (Homo sapiens, UniProt P51532); assay: HiBit-BRG1 cell-based degradation assay (Nano-Glo HiBiT Lytic Detection); conditions: HeLa cells expressing HiBit-BRG1 and LgBit, 24 h; for DC50: read-out: BRG1 HiBit Degradation IC50; for Dmax: read-out: BRG1 HiBit Degradation Maximum (%)
T2 construct: expressed in transfected cells
Outline: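 Seed 5000 HeLa HiBit-BRG1/LgBit cells per well; treat 24 h; equilibrate 15 min at room temperature; add Nano-Glo HiBiT lytic reagent, shake 10 min, read luminescence. Percent degradation is scaled between DMSO and 2 μM reference degrader wells.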

T2 sequence (P51532 whole entry): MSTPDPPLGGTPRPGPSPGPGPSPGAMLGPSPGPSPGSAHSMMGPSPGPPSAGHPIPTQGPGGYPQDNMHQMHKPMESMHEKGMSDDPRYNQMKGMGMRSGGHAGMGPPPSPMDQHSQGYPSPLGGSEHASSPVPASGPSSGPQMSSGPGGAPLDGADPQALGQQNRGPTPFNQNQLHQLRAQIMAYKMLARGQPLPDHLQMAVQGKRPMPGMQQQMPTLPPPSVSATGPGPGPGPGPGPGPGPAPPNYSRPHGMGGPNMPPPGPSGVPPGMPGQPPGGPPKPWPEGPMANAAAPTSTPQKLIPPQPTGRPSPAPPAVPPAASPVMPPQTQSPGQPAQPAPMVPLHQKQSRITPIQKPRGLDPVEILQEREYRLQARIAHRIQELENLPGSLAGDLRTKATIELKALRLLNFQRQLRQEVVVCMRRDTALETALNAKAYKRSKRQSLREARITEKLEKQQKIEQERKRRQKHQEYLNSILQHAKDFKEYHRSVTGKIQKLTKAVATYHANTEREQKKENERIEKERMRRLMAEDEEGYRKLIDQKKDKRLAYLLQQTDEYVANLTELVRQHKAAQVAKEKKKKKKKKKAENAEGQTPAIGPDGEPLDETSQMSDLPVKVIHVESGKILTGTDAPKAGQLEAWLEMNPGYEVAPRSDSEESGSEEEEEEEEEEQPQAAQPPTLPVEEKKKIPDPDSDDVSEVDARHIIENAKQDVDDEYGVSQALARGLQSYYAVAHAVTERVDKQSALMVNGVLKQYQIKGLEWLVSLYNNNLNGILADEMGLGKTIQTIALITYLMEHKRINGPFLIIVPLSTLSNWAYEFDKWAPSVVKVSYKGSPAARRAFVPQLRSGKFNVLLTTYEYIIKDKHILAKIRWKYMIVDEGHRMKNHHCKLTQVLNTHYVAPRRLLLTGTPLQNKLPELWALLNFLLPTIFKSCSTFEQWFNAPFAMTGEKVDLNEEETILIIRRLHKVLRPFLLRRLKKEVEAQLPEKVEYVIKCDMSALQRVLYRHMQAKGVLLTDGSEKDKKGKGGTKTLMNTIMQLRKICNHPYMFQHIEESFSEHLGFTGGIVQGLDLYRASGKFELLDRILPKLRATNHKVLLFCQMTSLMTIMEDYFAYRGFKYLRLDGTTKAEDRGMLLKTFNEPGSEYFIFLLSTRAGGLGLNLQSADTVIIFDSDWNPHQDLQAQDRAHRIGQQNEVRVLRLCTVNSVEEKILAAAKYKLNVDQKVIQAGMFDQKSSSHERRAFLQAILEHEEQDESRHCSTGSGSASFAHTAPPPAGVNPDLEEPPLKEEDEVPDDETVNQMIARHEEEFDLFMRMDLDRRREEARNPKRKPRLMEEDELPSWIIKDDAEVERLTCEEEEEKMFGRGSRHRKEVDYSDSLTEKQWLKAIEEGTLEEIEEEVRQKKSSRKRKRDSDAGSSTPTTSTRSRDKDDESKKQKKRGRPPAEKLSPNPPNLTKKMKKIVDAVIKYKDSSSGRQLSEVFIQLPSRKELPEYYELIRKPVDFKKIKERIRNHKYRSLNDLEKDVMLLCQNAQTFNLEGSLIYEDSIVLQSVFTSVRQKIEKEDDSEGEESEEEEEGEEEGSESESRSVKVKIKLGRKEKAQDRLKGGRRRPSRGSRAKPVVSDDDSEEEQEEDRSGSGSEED
T1 sequence (P51531 whole entry): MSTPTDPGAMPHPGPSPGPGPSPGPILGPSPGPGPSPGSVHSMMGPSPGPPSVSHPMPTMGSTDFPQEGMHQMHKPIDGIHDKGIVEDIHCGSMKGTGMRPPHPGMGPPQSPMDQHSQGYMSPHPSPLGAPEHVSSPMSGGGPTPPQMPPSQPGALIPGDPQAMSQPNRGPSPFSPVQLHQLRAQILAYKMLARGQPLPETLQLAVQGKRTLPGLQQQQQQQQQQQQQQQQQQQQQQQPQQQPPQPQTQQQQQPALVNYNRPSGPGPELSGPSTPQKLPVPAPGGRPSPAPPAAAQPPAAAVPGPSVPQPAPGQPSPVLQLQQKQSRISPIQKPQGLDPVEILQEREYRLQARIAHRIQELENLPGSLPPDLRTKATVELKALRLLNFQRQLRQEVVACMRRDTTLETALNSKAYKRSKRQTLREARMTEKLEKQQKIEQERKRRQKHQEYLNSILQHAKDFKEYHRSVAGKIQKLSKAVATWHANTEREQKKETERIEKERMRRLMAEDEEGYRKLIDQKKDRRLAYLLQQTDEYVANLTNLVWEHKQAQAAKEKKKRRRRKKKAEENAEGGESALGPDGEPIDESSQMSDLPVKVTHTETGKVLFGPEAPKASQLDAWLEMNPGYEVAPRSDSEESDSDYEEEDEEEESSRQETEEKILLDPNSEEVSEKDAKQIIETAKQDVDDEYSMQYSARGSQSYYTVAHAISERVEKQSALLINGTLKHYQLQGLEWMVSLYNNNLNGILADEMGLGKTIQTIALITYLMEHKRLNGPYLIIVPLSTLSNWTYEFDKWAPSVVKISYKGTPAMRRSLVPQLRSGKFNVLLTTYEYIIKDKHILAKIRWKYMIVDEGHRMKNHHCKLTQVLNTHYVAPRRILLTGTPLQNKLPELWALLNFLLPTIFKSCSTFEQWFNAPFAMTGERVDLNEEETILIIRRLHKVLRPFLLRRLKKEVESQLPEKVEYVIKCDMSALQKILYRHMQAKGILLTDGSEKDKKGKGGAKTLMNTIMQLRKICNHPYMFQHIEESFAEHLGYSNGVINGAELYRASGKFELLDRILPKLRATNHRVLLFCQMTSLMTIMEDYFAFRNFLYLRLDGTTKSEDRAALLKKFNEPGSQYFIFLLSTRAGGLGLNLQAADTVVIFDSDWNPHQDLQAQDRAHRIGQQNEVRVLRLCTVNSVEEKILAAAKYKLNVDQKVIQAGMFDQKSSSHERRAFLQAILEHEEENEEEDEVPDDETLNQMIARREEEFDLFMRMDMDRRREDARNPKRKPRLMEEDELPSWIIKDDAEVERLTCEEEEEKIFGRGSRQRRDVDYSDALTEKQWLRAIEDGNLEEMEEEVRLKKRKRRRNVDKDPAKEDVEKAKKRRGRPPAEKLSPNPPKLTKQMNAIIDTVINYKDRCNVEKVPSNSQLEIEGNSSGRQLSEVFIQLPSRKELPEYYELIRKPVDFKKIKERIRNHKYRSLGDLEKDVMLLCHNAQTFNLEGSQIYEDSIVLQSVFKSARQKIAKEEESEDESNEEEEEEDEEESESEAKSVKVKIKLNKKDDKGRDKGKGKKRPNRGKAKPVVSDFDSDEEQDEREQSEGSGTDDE

Compound | BRM HiBit Degradation Maximum (%) (HiBiT-BRM) | DC50 (HiBiT-BRM) [nM] | DC50 (HiBit-BRG1) [nM] | Dmax (HiBit-BRG1) [%]
Cc1ncsc1-c1ccc(CNC(=O)[C@@H]2C[C@@H](O)CN2C(=O)[C@@H](NC(=O)CCCCCCCCCNC(=O)c2ccc(CCNc3cc(-c4ccccc4O)nnc3N)cc2)C(C)(C)C)cc1 [Compound 134, (2S,4R)-1-[(2S)-2-(10-[[4-(2-[[3-amino-6-(2-hydroxyphenyl)pyridazin-4-yl]amino]ethyl)phenyl]formamido]decanamido)-3,3-dimethylbutanoyl]-4-hydroxy-N-[[4-(4-methyl-1,3-thiazol-5-yl)phenyl]methyl]pyrrolidine-2-carboxamide] | B (“B” indicates maximum degradation ≥50%) | > 100 | > 1000 | < 50
Nc1nnc(-c2ccccc2O)cc1OCCc1ccc(CNC(=O)CCCCNc2ccc3c(c2)C(=O)N(C2CCC(=O)NC2=O)C3)cc1 (stereo not drawn) [Compound 135, N-[[4-(2-[[3-amino-6-(2-hydroxyphenyl)pyridazin-4-yl]oxy]ethyl)phenyl]methyl]-5-[[2-(2,6-dioxopiperidin-3-yl)-3-oxo-1H-isoindol-5-yl]amino]pentanamide] | C (“C” indicates maximum degradation <50%) | > 1000 | > 1000 | < 50
Cc1ncsc1-c1ccc(CNC(=O)[C@@H]2C[C@@H](O)CN2C(=O)[C@@H](NC(=O)CCCCCCCCCCCCCCCC(=O)NCc2ccc(CCNc3cc(-c4ccccc4O)nnc3N)cc2)C(C)(C)C)cc1 [Compound 136, N′-[[4-(2-[[3-amino-6-(2-hydroxyphenyl)pyridazin-4-yl]amino]ethyl)phenyl]methyl]-N-[(2S)-1-[(2S,4R)-4-hydroxy-2-([[4-(4-methyl-1,3-thiazol-5-yl)phenyl]methyl]carbamoyl)pyrrolidin-1-yl]-3,3-dimethyl-1-oxobutan-2-yl]heptadecanediamide] | B (“B” indicates maximum degradation ≥50%) | > 100 | > 1000 | < 50
Nc1nnc(-c2ccccc2O)cc1OCCc1ccc(CNC(=O)CCCCNc2ccc3c(c2)CN(C2CCC(=O)NC2=O)C3=O)cc1 (stereo not drawn) [Compound 137, N-(4-(2-((3-amino-6-(2-hydroxyphenyl)pyridazin-4-yl)oxy)ethyl)benzyl)-5-((2-(2,6-dioxopiperidin-3-yl)-1-oxoisoindolin-5-yl)amino)pentanamide] | C (“C” indicates maximum degradation <50%) | > 1000 | > 1000 | < 50
Cc1ncsc1-c1ccc(CNC(=O)[C@@H]2C[C@@H](O)CN2C(=O)[C@@H](NC(=O)CCCCCCCCC(=O)NCc2ccc(CCOc3cc(-c4ccccc4O)nnc3N)cc2)C(C)(C)C)cc1 [Compound 138, N1-(4-(2-((3-amino-6-(2-hydroxyphenyl)pyridazin-4-yl)oxy)ethyl)benzyl)-N10-((S)-1-((2S,4R)-4-hydroxy-2-((4-(4-methylthiazol-5-yl)benzyl)carbamoyl)pyrrolidin-1-yl)-3,3-dimethyl-1-oxobutan-2-yl)decanediamide] | A (“A” indicates maximum degradation ≥75%) | > 100 | > 1000 | < 50
Cc1ncsc1-c1ccc(CNC(=O)[C@@H]2C[C@@H](O)CN2C(=O)[C@@H](NC(=O)CCCCCCCCCNCc2ccc(CCNc3cc(-c4ccccc4O)nnc3N)cc2)C(C)(C)C)cc1 [Compound 139, (2S,4R)-1-((S)-2-(10-((4-(2-((3-amino-6-(2-hydroxyphenyl)pyridazin-4-yl)amino)ethyl)benzyl)amino)decanamido)-3,3-dimethylbutanoyl)-4-hydroxy-N-(4-(4-methylthiazol-5-yl)benzyl)pyrrolidine-2-carboxamide] | A (“A” indicates maximum degradation ≥75%) | > 100 | > 1000 | > 50
